# Values of other authors as cited in patent US20060079522A1, “Amino substituted aryloxybenzylpiperidine derivatives” (priority 2004, published 2006).
# Where two headings read alike, the source gives them in different places.
# Key:
# MCH1 receptor [1] = biological target: T1, MCH1 receptor (Rattus norvegicus, UniProt P97639); settings: rat social interaction
# T1 construct: SNAP-7941, a selective MCH1 small molecule antagonist, was evaluated in several animal models; host or cells: living rats (endogenous receptor)
# T1 sequence (P97639 whole entry): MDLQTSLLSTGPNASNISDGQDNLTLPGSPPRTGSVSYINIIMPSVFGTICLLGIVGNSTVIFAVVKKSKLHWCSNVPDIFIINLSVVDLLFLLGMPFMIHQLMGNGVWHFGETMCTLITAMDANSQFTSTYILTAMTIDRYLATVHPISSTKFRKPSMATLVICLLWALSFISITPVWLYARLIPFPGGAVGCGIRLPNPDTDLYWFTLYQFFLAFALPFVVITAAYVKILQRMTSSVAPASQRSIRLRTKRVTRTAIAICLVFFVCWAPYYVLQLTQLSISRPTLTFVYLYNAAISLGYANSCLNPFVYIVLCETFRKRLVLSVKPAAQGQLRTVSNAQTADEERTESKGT
# MCH1 receptor [2] = biological target: T1, MCH1 receptor; settings: rat forced-swim
# MCH1 receptor [3] = settings: guinea pig maternal-separation vocalization
structure (smiles),measurement,setting,value
COCC1=C(C(=O)OC)[C@H](c2ccc(F)c(F)c2)N(C(=O)NCCCN2CCC(c3cccc(NC(C)=O)c3)CC2)C(=O)N1 [SNAP-7941],profile in behavioral model of depression and/or anxiety,MCH1 receptor [1],profile similar to clinically used anti-depressants and anxiolytics
same,profile in behavioral model of depression and/or anxiety,MCH1 receptor [2],profile similar to clinically used anti-depressants and anxiolytics
same,profile in behavioral model of depression and/or anxiety,MCH1 receptor [3],profile similar to clinically used anti-depressants and anxiolytics
